Source: patent publication US20180292390A1 (priority 2015, published 2018)
Read-outs that look alike come from different tables or passages of the source.

Tests used:
[1] = test system: BRB in retinal slice cultures; test: IgG immunostaining of retinal slice cultures: BRB breach; type: cell-based; settings: for IgG in neurons (indicator of BRB breach): retinal slices treated with histamine with or without lipoxin A4, FIG. 10
Text: Untreated samples served as control. The slices were then processed to generate cryosections for immunostaining. The location of IgG (an indicator of BRB breach) was monitored by immunostaining.

Muller cell processes = test: GFAP immunostaining of ex vivo retinal culture: Muller cell processes; type: cell-based; settings: retina untreated, histamine only, LXA4 only, or both, FIG. 15
Experimental: This experiment followed the protocol of Example 1. This example illustrates a new analysis added for drug evaluation in ex vivo retinal culture. […] Statistical significance is determined by two-tailed Student's t test. *, P<0.05; **, P<0.01; ***, P<0.001. Mean±SEM is plotted in the graph.

[2] = test system: BBB (blood vessels) in mouse brain organotypic cultures; settings: 450 μM histamine; for blood vessel leakage: 1 hour; for percentage of leaky vessels (IgG extravasated out of blood vessels): 2 mm MBO
Experimental: (§1) Primary mouse brain organotypic cultures were prepared as described previously ((Levin et al., Brain Res. 1298, 194-207, 2009). Briefly, the brains were removed from C57BL/6 mice (n=8) and cut to either 1 mm or 2 mm thickness using a tissue chopper. The brain slices were then placed in medium containing 25% inactivated horse serum, 25% Hanks' BSS, 50% DMEM, and 25 mg/l penicillin-streptomycin (Invitrogen, Carlsbad, Calif.) in 6-well culture dishes and maintained for 30 min at room temperature. The brain slices were then moved to either fresh media (control) or fresh media containing 450 μM histamine (Sigma, Saint Louis, Mo., Cat. No. H7125-1G) in 6-well culture dishes for 1 hr at 37° C. in a 5% CO2-enriched atmosphere. The brain slices were fixed with 4% paraformaldehyde (PFA) in PBS at room temperature and processed for immunohistochemistry as described below.
(§2) The mouse brain organotypic brain slices were stored in 4% PFA overnight at 4° C. The brain slices were then infiltrated with 10% sucrose in PBS for 2 hours, followed by 30% sucrose in PBS overnight at 4° C. under constant, gentle agitation. Using a Leica cryostat, 12 μm thick frozen sections were cut, mounted onto Fisher Super Frost Plus slides, and air dried. Immunohistochemistry for the paraffin-embedded tissues was carried out using procedure well known in the art. Briefly, tissues were deparaffinized using xylene and then rehydrated through a graded series of decreasing concentrations of ethanol. Next, protein antigenicity was enhanced by microwaving sections in citrate buffer. The paraffin-embedded tissues were then processed in the same way as the frozen sections described below.
(§3) Immunohistochemistry for the frozen sections was carried out as previously described ((Levin et al., Brain Res. 1298, 194-207, 2009). Briefly, tissues were rehydrated with PBS for 2 min. The endogenous peroxidase was quenched by treating sections with 0.3% H202 for 30 min. First, sections were incubated in blocking serum for 30 min. at room temperature, and then treated with primary antibodies at appropriate dilutions for 1 hr at room temperature. Next, sections were thoroughly rinsed with PBS, and sections were incubated with biotin-labeled secondary antibody for 30 min. at room temperature. Sections were then treated with the avidin-peroxidase-labeled biotin complex (ABC, Vector Labs, Foster City, Calif.) and visualized by treating with either 3-3-diaminobenzidine-4-HCL (DAB)/H2O2 (Biomeda, Foster City, Calif.) or NovaRed (Vector Labs, Foster City, Calif., Cat. No. SK-4800). Sections were then lightly counterstained with hematoxylin, dehydrated through increasing concentrations of ethanol, cleared in xylene and mounted in Permount. Specimens were examined and photographed with a Nikon FXA microscope, and digital images were recorded using a Nikon DXM1200F digital camera and processed using Image Pro Plus (Phase 3 Imaging, Glen Mills, Pa.) image software.
(§4) Leaky and non-leaky vessels, GFAP-positive and -negative astrocytes, and vimentin-positive and -negative neurons were counted in sections of primary mouse brain organotypic culture slices. Images were optimized and counting was performed using the counting feature of Adobe Photoshop CS3. Three sections were examined per treatment group, with at least ten viewing fields counted from each section, for a total of 30 viewing fields per treatment group. Only blood vessels with endothelial cell nuclei, astrocytes with their nuclei, and neurons with their nuclei within the plane of section were included in the count. […] The percentage of total leaky vessels, GFAP-positive astrocytes, and vimentin-positive neurons for histamine treated and control slices were determined.
(§5) Immunohistochemistry (IHC) was used to evaluate the effects of histamine on BBB permeability and the response of cells within the surrounding brain parenchyma.

[3] = test system: astrocytes in mouse brain organotypic cultures; settings: 450 μM histamine; for GFAP-positive astrocytes (GFAP expression): 1 hr, 2 mm MBO
Experimental: as §1, §2, §3, §4, §5

[4] = test system: neurons in mouse brain organotypic cultures; settings: 450 μM histamine; for vimentin-positive neurons: 2 mm MBO
Experimental: as §1, §2, §3, §4, §5

[5] = test system: GFAP expression in retinal slices; settings: retinal slices treated with histamine 0, 30, 60 or 90 min, FIG. 8
Text: (§6) The slices were then processed to generate cryosections for immunostaining.

[6] = test system: MAP2 expression in retinal slices; settings: retinal slices treated with histamine 0, 30, 60 or 90 min, FIG. 9
Text: as §6

BBB, mouse brain = test: IgG immunostaining of brain cortex of PT-treated mice: BBB compromise; type: in vivo
Text: This experiment followed the protocol of Example 1. This experiment involved S100B knockout (KO) mice, focusing on age-dependent increase of blood-brain barrier permeability and neuron-binding autoantibodies in SB100KO mice. […] Overlay of IgG immunostaining (red) with DAPI (blue) is presented from cortical region of the brain. (FIG. 18A) In untreated wild type (WT) brains, IgG-positive staining was confined to the microvasculature, indicating intact blood vessels (arrows). […] (FIG. 18C). In the S100BKO mouse brain (KO), even without PT treatment, IgG-positive leaks (marked by white dotted circle) were observed. (FIG. 18D).

retinal neurons = test: SV2 and MAP2 immunostaining of retina of pertussis toxin treated mice; type: in vivo; settings: pertussis toxin treated wild type mice

Molecule: CCCCC[C@H](O)/C=C/C=C\C=C\C=C\[C@@H](O)[C@@H](O)CCCC(=O)O [LXA4, lipoxin A4]
- IgG in neurons (indicator of BRB breach) [1]: conferred protection from these effects
- Muller cell processes (GFAP staining, width) (Muller cell processes): Rescued

Molecule: NCCc1c[nH]cn1 [histamine]
- blood vessel leakage ([2]; 1 mm MBOs): 30.9%
- blood vessel leakage ([2]; 2 mm MBOs): 24.4%
- percentage of leaky vessels (IgG extravasated out of blood vessels) ([2]; 1 hr, distal portion (700-1050 μm)): 32.4%
- percentage of leaky vessels (IgG extravasated out of blood vessels) ([2]; 1 hr, middle portion (350-700 μm)): 24.7%
- percentage of leaky vessels (IgG extravasated out of blood vessels) ([2]; 1 hr, proximal portion (0-350 μm)): 19.9%
- perivascular leakage, histamine treated compared to controls, overall ([2]; 1 hr, MBO, FIG. 5A): more than two-fold
- astrocyte activation ([3]; 1 hour, 1 mm MBOs): 47.7%
- GFAP expression by astrocytes ([3]; 1 hour, 2 mm MBOs): 45.7%
- GFAP-positive astrocytes (GFAP expression) ([3]; distal portion): 48.4%
- GFAP-positive astrocytes (GFAP expression) ([3]; middle portion): 45.1%
- GFAP-positive astrocytes (GFAP expression) ([3]; proximal portion): 43.6%
- neuronal damage-responses ([4]; 1 hour, 1 mm MBOs): 51.8%
- vimentin expression by neurons ([4]; 1 hour, 2 mm MBOs): 46.5%
- vimentin-positive neurons ([4]; 1 hr, distal portion): 47.5%
- vimentin-positive neurons ([4]; 1 hr, middle portion): 45.1%
- vimentin-positive neurons ([4]; 1 hr, proximal portion): 47%
- increase in neurons expressing vimentin compared to control sections ([4]; 1 hr, MBO, FIG. 5C): greater than four-fold
- BRB integrity, location of IgG ([1]; retinal slices after histamine treatment, FIG. 7): BRB breakdown and extravasated IgG surrounding blood vessels
- IgG in neurons (indicator of BRB breach) [1]: neurons were loaded with IgG
- GFAP expression [5]: elevation in GFAP expression
- MAP2 expression [6]: decrease in MAP2 expression
- Muller cell processes (GFAP staining, width) (Muller cell processes): Compromised

Molecule: Pertussis toxin [PT]
- IgG binding to neurons in brain cortex (BBB, mouse brain; S100BKO mice treated with PT, FIG. 18D): intensely bound by IgG
- IgG-positive staining in brain cortex (BBB, mouse brain; wild type (WT) mice with PT treatment, FIG. 18B): IgG-positive microvascular leaks
- retinal neuronal damage by SV2 and MAP2 immunostaining (retinal neurons): displays retinal neuronal damages
